For one data set, the system named is SARS-CoV-2. The data set can be described thus: microbe, parasite or virus in culture. Particulars: Severe acute respiratory syndrome coronavirus 2, Huh-7, 24 h.
In data set [1] the target is Replicase polyprotein 1ab (Severe acute respiratory syndrome coronavirus 2, UniProt P0DTD1). In words: Inhibition of SARS-CoV-2 3CL protease using Dabcyl-KTSAVLQSGFRKM-(Edans) as substrate preincubated for 30 mins followed by substrate addition and measured after 60 mins by fluorescence based microplate reader assay.
Data set [2] can be described thus: Metabolic stability in human liver microsomes assessed as half life measured upto 60 mins in presence of NADPH by LC/MS-MS analysis. It counts as ADME, Microsome.
Data set [3] is described as follows: Efflux ratio of apparent permeability across basolateral to apical side over apical to basolateral side in human Caco-2 cells. It counts as ADME, cell-based.
Data set [4] in a line: Apparent permeability across apical to basolateral side in human Caco-2 cells incubated for 2 hrs by LC-MS/MS analysis. It counts as ADME, cell-based. For orientation: Caco-2 monolayers are a common model of the intestinal barrier.

Consider 13 compounds from ChEMBL document CHEMBL6071136, “Discovery of macrocyclic covalent inhibitors for severe acute respiratory syndrome coronavirus 2 3CL protease” (Bioorg Med Chem, 2024).

Each structure is given as a SMILES string. pEC50, pIC50: −log10 of the molar value. A value given as a limit tells only on which side of the number the result lay.

The pEC50 is the EC50 on a negative log10 scale, so that one unit is a factor of ten. A word on the pIC50: it is the IC50 on a negative log10 scale, so that one unit is a factor of ten. Read a low pIC50 as a high IC50. For `CN1CC(C)(C)[C@H](NC(=O)C(F)(F)F)C(=O)N2C[C@H]3[C@@H]([C@H]2C(=O)N[C@H](C#N)C[C@@H]2C[C@H](NC2=O)C1=O)C3(C)C`, the negative-log EC50 (pEC50) in the data set on SARS-CoV-2 is below 5.00. The same compound showed a negative-log IC50 (pIC50) in data set [1] below 5.00.

As usually defined, the half-life is the time needed for the level to fall by half in the phase considered. One may read the efflux ratio as a quotient of directional permeabilities that is used to spot active efflux. One may read the Papp A→B as the apparent permeability from the apical to the basolateral side of a cell layer. Turning to `CC1(C)COC(=O)[C@@H]2C[C@@H](C[C@@H](C#N)NC(=O)[C@@H]3[C@@H]4[C@H](CN3C(=O)[C@H]1NC(=O)C(F)(F)c1ccc(F)cc1)C4(C)C)C(=O)N2`, the pEC50 in the data set on SARS-CoV-2 is 6.89. In addition, the half-life in data set [2] came to 6 min. Besides, in data set [3], the efflux ratio was found to be 206. Also, the Papp A→B at 2 h in data set [4] is 0.1 ×10⁻⁶ cm/s. In data set [1], the negative-log IC50 (pIC50) was 7.66.

Compound `COC(=O)N[C@@H]1C(=O)N2C[C@H]3[C@@H]([C@H]2C(=O)N[C@H](C#N)C[C@@H]2C[C@@H](CCCCC1(C)C)NC2=O)C3(C)C` gave a pEC50 with SARS-CoV-2 of 7.00. In addition, the half-life in data set [2] is 13.9 min. Further, the pIC50 in data set [1] is 8.34.

As for `CC1(C)COC(=O)[C@@H]2C[C@@H](C[C@@H](C#N)NC(=O)[C@@H]3[C@@H]4[C@H](CN3C(=O)[C@H]1NC(=O)CC1CC1)C4(C)C)C(=O)N2`, in the data set on SARS-CoV-2, the pEC50 was 6.51. Besides, in data set [2], the half-life turned out to be 78 min. Moreover, the pIC50 in data set [1] was 7.68.

Compound `Cc1cccc(C)c1OCC(=O)N[C@@H]1C(=O)N2C[C@H]3[C@@H]([C@H]2C(=O)N[C@H](C#N)C[C@@H]2C[C@H](NC2=O)C(=O)NCC1(C)C)C3(C)C` had a pEC50 with SARS-CoV-2 of 5.25. Besides, the half-life in data set [2] is 4 min. The efflux ratio in data set [3] is 64. For the same compound, the Papp A→B at 2 h in data set [4] was determined as 0.13 ×10⁻⁶ cm/s. Further, in data set [1], the pIC50 is 6.49.

Regarding `CC1(C)CNC(=O)[C@@H]2C[C@H](C[C@@H](C#N)NC(=O)[C@@H]3[C@@H]4[C@H](CN3C(=O)[C@H]1NC(=O)C(F)(F)F)C4(C)C)C(=O)N2`, the half-life in data set [2] was above 180 min. In addition, in data set [3], the efflux ratio is 10. Moreover, the Papp A→B at 2 h in data set [4] turned out to be 0.09 ×10⁻⁶ cm/s. This compound gave a pIC50 in data set [1] of 7.12.

Take `CC1(C)CNC(=O)[C@@H]2C[C@H](C[C@@H](C#N)NC(=O)[C@@H]3[C@@H]4[C@H](CN3C(=O)[C@H]1NC(=O)OCc1ccccc1)C4(C)C)C(=O)N2`: the efflux ratio in data set [3] was 103. Besides, the apparent permeability from apical to basolateral (Papp A→B) at 2 h in data set [4] was found to be 0.05 ×10⁻⁶ cm/s. In addition, the pIC50 in data set [1] was 7.92.

For the compound `CC(C)(C)C(=O)N[C@@H]1C(=O)N2C[C@H]3[C@@H]([C@H]2C(=O)N[C@H](C#N)C[C@@H]2C[C@H](NC2=O)C(=O)NCC1(C)C)C3(C)C`, the negative logarithm of the IC50 (pIC50) in data set [1] was 6.51.

Turning to `CC1(C)CCCC[C@@H]2C[C@@H](C[C@@H](C#N)NC(=O)[C@@H]3[C@@H]4[C@H](CN3C(=O)[C@H]1NC(=O)OCc1ccccc1)C4(C)C)C(=O)N2`, in the data set on SARS-CoV-2, the pEC50 was 7.51. In data set [1], this compound had a pIC50 of 7.57.

With `CC1(C)CNC(=O)[C@@H]2C[C@@H](C[C@@H](C#N)NC(=O)[C@@H]3[C@@H]4[C@H](CN3C(=O)[C@H]1NC(=O)COc1ccc(F)cc1F)C4(C)C)C(=O)N2`, the pEC50 in the data set on SARS-CoV-2 was 5.81. Moreover, in data set [2], the half-life was 6.3 min. Moreover, the negative logarithm of the IC50 (pIC50) in data set [1] is 7.15.

`CC1(C)CNC(=O)[C@@H]2C[C@@H](C[C@@H](C#N)NC(=O)[C@@H]3[C@@H]4[C@H](CN3C(=O)[C@H]1NC(=O)C(F)(F)F)C4(C)C)C(=O)N2`: the pEC50 with SARS-CoV-2 is 6.58. Further, in data set [2], the half-life is above 180 min. The pIC50 in data set [1] is 7.74.

`CC1(C)CNC(=O)[C@@H]2C[C@@H](C[C@@H](C#N)NC(=O)[C@@H]3[C@@H]4[C@H](CN3C(=O)[C@H]1NC(=O)C1CC1)C4(C)C)C(=O)N2`: the negative-log EC50 (pEC50) in the data set on SARS-CoV-2 is 5.18. The half-life in data set [2] was above 180 min. The negative logarithm of the IC50 (pIC50) in data set [1] was 7.49.

Compound `CC1(C)CCCC[C@@H]2C[C@@H](C[C@@H](C#N)NC(=O)[C@@H]3[C@@H]4[C@H](CN3C(=O)[C@H]1NC(=O)C(F)(F)F)C4(C)C)C(=O)N2` showed a pEC50 in the data set on SARS-CoV-2 of 7.08. Also, the half-life in data set [2] was found to be 4.4 min. The compound further had a negative logarithm of the IC50 (pIC50) in data set [1] of 8.00.
